Measured values reported in US4752606A, “Pharmaceutical compositions and preparations thereof” (501 Noristan Limited, priority 1982, dated 1988).
Counter-ions that a name gives are not always drawn.

Tests used:
[1] = Anti-inflammatory effect: carrageenan induced rat paw oedema; assay type: in vivo
Procedure: The compounds (aspirin and oleanolic acid) were administered orally.

mice [2] = experiment: Acute toxicity of aspirin with and without oleanolic acid; assay type: in vivo; conditions: oral, males, mixture 1:1 mass ratio
[3] = as above; assay type: in vivo; conditions: mouse, in vivo, po, mice, mixture 1:1 mass ratio
[4] = Analgesic effect of aspirin in the presence of oleanolic acid; assay type: in vivo, rats; conditions: Rattus norvegicus, read-out: ED50 (analgesic effect)
Procedure: The analgesic effect of the compound was tested in oral application to rats. 45 Minutes after application of the compound, the rats received an intraperitoneal injection of 1.0 ml 1% acetic acid. This causes a series of characteristic spasms in the untreated control animals. Analgesic effects are indicated by the reduction of the frequency of these spasms. The following results were obtained with the compound:
Measurement of the analgesic effect of the test compounds was done as set out in Test 1. The ED50 was computed for the various treatments as follows: […]

[5] = Antithrombotic effect: pulmonary thrombo-embolism in animals treated with arachnidoic acid; assay type: in vivo; conditions: for effect on occurrence of pulmonary thrombo-embolism: animals treated with arachnidoic acid
Text: Oleanolic acid has no effect in this regard.

[6] = mice; Shibata 1981, p. 65; cited from earlier work
[7] = Analgesic activity (acetic acid induced spasms); assay type: in vivo; conditions: rats; for Average No. of spasms (25 mins): untreated control 43.75
Procedure: The analgesic effect of the compound was tested in oral application to rats. 45 Minutes after application of the compound, the rats received an intraperitoneal injection of 1.0 ml 1% acetic acid. This causes a series of characteristic spasms in the untreated control animals. Analgesic effects are indicated by the reduction of the frequency of these spasms. The following results were obtained with the compound: […]

[8] = Activity against stress induced ulcers; assay type: in vivo; conditions: 100 mg/kg, rats, 24 h plaster bandage; drug 1 h before and 6 h after
Procedure: The effect of compounds on this formation of stress ulcers is assessed by applying the drugs 1 hour before encasing the animals in the bandage and again 6 hours after encasing the animals. After 24 hours, the bandage is removed and gastric damage is assessed compared to that of untreated animals.

[9] = Healing effect on thermally induced ulceration; assay type: in vivo, rats; conditions: 100 mg/kg per os twice daily, days 1-13; day 14; vs untreated control
Procedure: Thermal stomach ulceration was induced on day zero by means of a heated (75° C.) stainless steel stamp (5 mm in diameter). From day one onwards to day 13 the animals were treated twice daily with oleanolic acid (100 mg/kg; per os in tragacanth). On day 14 the animals were examined for the extent of gastric damage.

[10] = Effect on gastric damage caused by indomethacin; assay type: in vivo, rats
Procedure: (§1) Gastric damage caused by irritant substances (e.g. aspirin, indomethacin or other acidic analgesic/anti-inflammatory drugs) is assessed by applying a suitable dose of the protective compound followed later by a relatively high dose of the irritant (in the case of aspirin, approximately 550 mg/kg). After a further 5 hours, the extent of gastric damage is determined.

[11] = Gastric damage (HCl - Gastrin ulcer) caused by tetragastrin; assay type: in vivo, rats; conditions: 100 mg/kg/treatment per os twice daily, days 1-14; tetragastrin 100 μg/kg/day i.p.; day 15; vs untreated control
Procedure: Each animal was treated with hydrochloric acid (0,2 ml of a 20% solution; per os) on day zero. From day one onwards to day 14 the animals were treated once daily with tetragastrin (100 μg/kg/day; intraperitoneal injection) and twice daily with the protective compound (100 mg/kg/treatment; per os in tragacanth). On day 15 the extent of gastric damage was determined.

mice [12] = experiment: Acute toxicity of oleanolic acid; assay type: in vivo; conditions: oral route
[13] = oral; British Pat. No. 1,251,976, Example 10; cited from earlier work
[14] = Gastric damage caused by reserpine; assay type: in vivo, rats; conditions: 100 mg/kg per os; reserpine 6 mg/kg s.c.; after 16 hours; vs untreated control
Procedure: The animals were treated with oleanolic acid (per os; tragacanth vehicle) and directly thereafter with reserpine (6 mg/kg; subcutaneous injection). After 16 hours the extent of gastic damage was determined.

[15] = Effect on gastric damage caused by aspirin; assay type: in vivo, rats; conditions: aspirin approximately 550 mg/kg
Procedure: as §1

[16] = Healing effect on chemically induced ulceration (acetic acid); assay type: in vivo, rats; conditions: 100 mg/kg per os twice daily, days 1-10; day 11; vs untreated control
Procedure: Ulceration was induced by injecting 30% acetic acid into the stomach of the animals on day zero. From day one onwards to day 10 the animals were treated twice daily with the protective compound (100 mg/kg; per os). On day 11 the extent of gastric damage was determined.

## CC(=O)Oc1ccccc1C(=O)O [Aspirin]
[1]; aspirin 25 mg/kg oral (combination: plus oleanolic acid 25 mg/kg), 1.5 hrs
  % inhibition of swelling: 12%
[1]; aspirin 25 mg/kg oral (combination: plus oleanolic acid 25 mg/kg), 3 hrs
  % inhibition of swelling: 17%
[1]; aspirin 25 mg/kg oral (combination: plus oleanolic acid 25 mg/kg), 4.5 hrs
  % inhibition of swelling: 11%
[1]; aspirin 25 mg/kg oral (combination: plus oleanolic acid 25 mg/kg), 6 hrs
  % inhibition of swelling: 18%
[1]; aspirin 50 mg/kg oral (combination: plus oleanolic acid 50 mg/kg), 1.5 hrs
  % inhibition of swelling: 18%
[1]; aspirin 50 mg/kg oral (combination: plus oleanolic acid 50 mg/kg), 3 hrs
  % inhibition of swelling: 32%
[1]; aspirin 50 mg/kg oral (combination: plus oleanolic acid 50 mg/kg), 4.5 hrs
  % inhibition of swelling: 17%
[1]; aspirin 50 mg/kg oral (combination: plus oleanolic acid 50 mg/kg), 6 hrs
  % inhibition of swelling: 16%
[1]; aspirin 100 mg/kg oral (combination: plus oleanolic acid 100 mg/kg), 1.5 hrs
  % inhibition of swelling: 30%
[1]; aspirin 100 mg/kg oral (combination: plus oleanolic acid 100 mg/kg), 3 hrs
  % inhibition of swelling: 42%
[1]; aspirin 100 mg/kg oral (combination: plus oleanolic acid 100 mg/kg), 4.5 hrs
  % inhibition of swelling: 32%
[1]; aspirin 100 mg/kg oral (combination: plus oleanolic acid 100 mg/kg), 6 hrs
  % inhibition of swelling: 23%
[1]; aspirin 200 mg/kg oral (combination: plus oleanolic acid 200 mg/kg), 1.5 hrs
  % inhibition of swelling: 45%
[1]; aspirin 200 mg/kg oral (combination: plus oleanolic acid 200 mg/kg), 3 hrs
  % inhibition of swelling: 52%
[1]; aspirin 200 mg/kg oral (combination: plus oleanolic acid 200 mg/kg), 4.5 hrs
  % inhibition of swelling: 34%
[1]; aspirin 200 mg/kg oral (combination: plus oleanolic acid 200 mg/kg), 6 hrs
  % inhibition of swelling: 30%
Mice [2]
  LD50: 1110 mg/kg
[3]; combined
  LD50: 1800 mg/kg
[3]; females
  LD50: 2100 mg/kg
[4]; po
  ED50: 22.3 mg/kg
[5]
  effect on occurrence of pulmonary thrombo-embolism: inhibits the occurrence
[5]; read-out: ED50 (antithrombotic effect)
  ED50: 41 mg/kg

## CC1(C)[C@@H](O)CC[C@]2(C)[C@H]3CC=C4[C@@H]5C[C@@](C)(CO)CC[C@]5(C)CC[C@@]4(C)[C@]3(C)CC[C@@H]12 [olean-12-en-3β, 30-diol, reference compound]
[6]
  inhibiting activity against stress-induced ulceration: promising inhibiting activity

## CC1(C)CC[C@]2(C(=O)O)CC[C@]3(C)C(=CC[C@@H]4[C@@]5(C)CC[C@H](O)C(C)(C)[C@@H]5CC[C@]43C)[C@@H]2C1 [Oleanolic acid, oleanolic acid]
[7]; 10 mg/kg oral
  % Inhibition of spasms: 8.6%
  Average No. of spasms (25 mins): 40.0
[7]; 31.6 mg/kg oral
  % Inhibition of spasms: 49.4%
  Average No. of spasms (25 mins): 22.12
[7]; 100 mg/kg oral
  % Inhibition of spasms: 65.7%
  Average No. of spasms (25 mins): 15.10
[8]
  inhibition of the mean total ulceration score: 83.5%
[9]
  reduction of gastric damage (thermal ulceration): 59%
[4]; rats, oral, acetic acid spasms
  ED50: 55.8 mg/kg
[10]; 10 mg/kg
  Percentage inhibition of Indomethacin induced gastric damage: 61%
[10]; 30 mg/kg
  Percentage inhibition of Indomethacin induced gastric damage: 66%
[10]; 100 mg/kg
  Percentage inhibition of Indomethacin induced gastric damage: 80%
[10]; 300 mg/kg
  Percentage inhibition of Indomethacin induced gastric damage: 86%
[5]
  effect on occurrence of pulmonary thrombo-embolism: no effect
[11]
  inhibition of gastric damage (HCl - Gastrin ulcer): about 49%
[6]
  inhibiting activity against stress-induced ulceration: non-significant, if any, inhibiting activity
Mice [12]
  doses that did not cause any deaths: up to 4000 mg/kg
[13]
  reduction in ulceration (glucose induced): 8%
[14]
  inhibition of reserpine induced gastric damage: 25%
[15]; 30 mg/kg
  Percentage inhibition of Aspirin induced gastric damage: 28%
[15]; 100 mg/kg
  Percentage inhibition of Aspirin induced gastric damage: 49%
[15]; 300 mg/kg
  Percentage inhibition of Aspirin induced gastric damage: 69%
[16]
  reduction of gastric damage (acetic acid ulceration): 73%

## CN/C(=N/CCSCc1nc[nH]c1C)NC#N [Cimetidine, reference compound]
[11]
  inhibition of gastric damage (HCl - Gastrin ulcer): 41%

## CC1(C)[C@@H](OC(=O)CCC(=O)O)CC[C@]2(C)[C@H]3C(=O)C=C4[C@@H]5C[C@@](C)(C(=O)O)CC[C@]5(C)CC[C@@]4(C)[C@]3(C)CC[C@@H]12 [Carbenoxolone sodium, disodium salt of the hemisuccinate of glycyrrhetinic acid, reference compound]
[16]
  reduction of gastric damage (acetic acid ulceration): 42%

## CC1(C)CC[C@]2(C(=O)O)CC[C@]3(C)C(=CC[C@@H]4[C@@]5(C)CC[C@H](O)C(C)(C)[C@@H]5CC[C@]43C)[C@@H]2C1 [Sodium oleanolate]
[15]; 30 mg/kg
  Percentage inhibition of Aspirin induced gastric damage: 1%
[15]; 100 mg/kg
  Percentage inhibition of Aspirin induced gastric damage: 30%
[15]; 300 mg/kg
  Percentage inhibition of Aspirin induced gastric damage: 47%
